Experimental data: ChEMBL document CHEMBL3627608, “Crystal structures of human RIP2 kinase catalytic domain complexed with ATP-competitive inhibitors: Foundations for understanding inhibitor selectivity” (Bioorg Med Chem, 2015)

Key:
[1] = target: Phosphorylase b kinase gamma catalytic chain, skeletal muscle/heart isoform (Homo sapiens) (UniProt Q16816); test: Inhibition of PHKgamma1 (unknown origin) at 10 uM after 120 mins P33 radiolabeled kinase activity assay
[2] = target: T1, Serine/threonine-protein kinase Sgk1 (Homo sapiens) (UniProt O00141); test: Inhibition of SGK1 (unknown origin) at 10 uM after 120 mins P33 radiolabeled kinase activity assay
T1 sequence (whole entry): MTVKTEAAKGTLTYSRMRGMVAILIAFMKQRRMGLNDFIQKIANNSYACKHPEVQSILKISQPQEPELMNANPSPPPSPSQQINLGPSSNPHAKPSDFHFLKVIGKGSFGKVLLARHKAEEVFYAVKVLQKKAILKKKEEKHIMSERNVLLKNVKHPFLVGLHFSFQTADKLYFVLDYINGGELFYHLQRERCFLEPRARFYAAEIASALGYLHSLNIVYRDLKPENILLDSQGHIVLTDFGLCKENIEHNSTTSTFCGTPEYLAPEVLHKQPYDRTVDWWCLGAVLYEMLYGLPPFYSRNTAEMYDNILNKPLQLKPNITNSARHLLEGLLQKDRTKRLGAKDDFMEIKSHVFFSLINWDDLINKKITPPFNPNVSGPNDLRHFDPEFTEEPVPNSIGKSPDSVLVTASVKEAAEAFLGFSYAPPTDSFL

[3] = target: Ribosomal protein S6 kinase alpha-2 (Homo sapiens) (UniProt Q15349); test: Inhibition of RSK3 (unknown origin) at 10 uM after 120 mins P33 radiolabeled kinase activity assay
[4] = target: RAF proto-oncogene serine/threonine-protein kinase (Homo sapiens) (UniProt P04049); test: Inhibition of RAF1 (unknown origin) at 10 uM after 120 mins P33 radiolabeled kinase activity assay
[5] = target: T2, Serine/threonine-protein kinase D1 (Homo sapiens) (UniProt Q15139); test: Inhibition of PKCmu (unknown origin) at 10 uM after 120 mins P33 radiolabeled kinase activity assay
T2 sequence (whole entry): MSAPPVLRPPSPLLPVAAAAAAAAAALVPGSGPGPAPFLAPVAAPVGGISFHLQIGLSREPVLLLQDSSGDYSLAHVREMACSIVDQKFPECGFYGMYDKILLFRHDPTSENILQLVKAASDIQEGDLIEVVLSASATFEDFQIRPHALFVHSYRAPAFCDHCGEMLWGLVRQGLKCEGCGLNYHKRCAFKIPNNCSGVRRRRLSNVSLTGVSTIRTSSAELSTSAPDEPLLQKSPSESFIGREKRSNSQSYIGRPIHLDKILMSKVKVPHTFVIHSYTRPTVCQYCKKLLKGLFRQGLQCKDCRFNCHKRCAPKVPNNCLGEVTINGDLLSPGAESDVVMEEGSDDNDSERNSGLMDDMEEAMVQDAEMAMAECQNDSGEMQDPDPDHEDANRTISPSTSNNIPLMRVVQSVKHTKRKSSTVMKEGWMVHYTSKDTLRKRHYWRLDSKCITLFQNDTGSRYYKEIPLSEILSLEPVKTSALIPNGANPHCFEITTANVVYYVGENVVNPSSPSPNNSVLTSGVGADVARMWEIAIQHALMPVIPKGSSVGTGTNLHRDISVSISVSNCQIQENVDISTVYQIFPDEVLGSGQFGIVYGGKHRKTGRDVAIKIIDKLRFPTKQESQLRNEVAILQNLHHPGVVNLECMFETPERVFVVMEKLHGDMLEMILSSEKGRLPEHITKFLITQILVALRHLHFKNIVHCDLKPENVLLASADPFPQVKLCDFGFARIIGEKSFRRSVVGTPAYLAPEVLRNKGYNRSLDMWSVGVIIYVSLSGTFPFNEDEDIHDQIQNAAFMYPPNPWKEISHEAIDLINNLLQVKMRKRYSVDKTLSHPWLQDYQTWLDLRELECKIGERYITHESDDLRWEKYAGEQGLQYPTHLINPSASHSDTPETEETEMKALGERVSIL

[6] = target: Citron Rho-interacting kinase (Homo sapiens) (UniProt O14578); test: Inhibition of STK21 (unknown origin) at 10 uM after 120 mins P33 radiolabeled kinase activity assay
[7] = target: Serine/threonine-protein kinase 38-like (Homo sapiens) (UniProt Q9Y2H1); test: Inhibition of STK38L (unknown origin) at 10 uM after 120 mins P33 radiolabeled kinase activity assay
[8] = target: Serine/threonine-protein kinase N2 (Homo sapiens) (UniProt Q16513); test: Inhibition of PKN2 (unknown origin) at 10 uM after 120 mins P33 radiolabeled kinase activity assay
[9] = target: Serine/threonine-protein kinase PAK 3 (Homo sapiens) (UniProt O75914); test: Inhibition of PAK3 (unknown origin) at 10 uM after 120 mins P33 radiolabeled kinase activity assay
[10] = target: T3, Serine/threonine-protein kinase Nek3 (Homo sapiens) (UniProt P51956); test: Inhibition of NEK3 (unknown origin) at 10 uM after 120 mins P33 radiolabeled kinase activity assay
T3 sequence (whole entry): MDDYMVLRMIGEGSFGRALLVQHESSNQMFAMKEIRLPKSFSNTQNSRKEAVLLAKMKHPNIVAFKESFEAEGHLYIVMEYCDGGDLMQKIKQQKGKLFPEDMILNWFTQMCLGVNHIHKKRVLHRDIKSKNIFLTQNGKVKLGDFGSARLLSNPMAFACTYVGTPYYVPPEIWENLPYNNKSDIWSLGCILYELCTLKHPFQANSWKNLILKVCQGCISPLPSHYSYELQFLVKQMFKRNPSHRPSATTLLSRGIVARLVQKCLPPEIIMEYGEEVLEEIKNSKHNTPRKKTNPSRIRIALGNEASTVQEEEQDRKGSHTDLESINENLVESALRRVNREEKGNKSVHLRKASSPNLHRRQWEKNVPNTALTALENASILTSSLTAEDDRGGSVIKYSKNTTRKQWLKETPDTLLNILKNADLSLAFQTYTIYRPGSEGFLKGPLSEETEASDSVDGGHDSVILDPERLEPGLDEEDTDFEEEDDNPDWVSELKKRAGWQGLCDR

[11] = target: Serine/threonine-protein kinase pim-3 (Homo sapiens) (UniProt Q86V86); test: Inhibition of PIM3 (unknown origin) at 10 uM after 120 mins P33 radiolabeled kinase activity assay

Chain of RAF proto-oncogene serine/threonine-protein kinase (Homo sapiens) (P04049 whole entry): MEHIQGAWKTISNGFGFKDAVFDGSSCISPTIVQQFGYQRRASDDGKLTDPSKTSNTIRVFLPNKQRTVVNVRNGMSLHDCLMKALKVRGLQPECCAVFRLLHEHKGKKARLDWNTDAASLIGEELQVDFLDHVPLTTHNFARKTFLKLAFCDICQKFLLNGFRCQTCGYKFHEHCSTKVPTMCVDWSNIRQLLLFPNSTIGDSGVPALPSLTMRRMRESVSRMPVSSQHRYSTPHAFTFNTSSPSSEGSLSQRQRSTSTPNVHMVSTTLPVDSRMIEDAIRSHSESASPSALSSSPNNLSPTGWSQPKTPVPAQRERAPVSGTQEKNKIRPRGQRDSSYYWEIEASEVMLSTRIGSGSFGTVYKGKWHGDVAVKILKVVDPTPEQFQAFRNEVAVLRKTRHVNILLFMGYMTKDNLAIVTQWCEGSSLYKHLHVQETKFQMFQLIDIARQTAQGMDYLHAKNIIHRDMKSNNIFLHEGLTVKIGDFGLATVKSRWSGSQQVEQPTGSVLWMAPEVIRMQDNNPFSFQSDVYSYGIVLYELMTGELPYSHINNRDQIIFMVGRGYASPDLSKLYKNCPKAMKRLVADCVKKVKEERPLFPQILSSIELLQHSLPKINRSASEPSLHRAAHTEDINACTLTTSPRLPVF
Chain of Ribosomal protein S6 kinase alpha-2 (Homo sapiens) (Q15349 whole entry): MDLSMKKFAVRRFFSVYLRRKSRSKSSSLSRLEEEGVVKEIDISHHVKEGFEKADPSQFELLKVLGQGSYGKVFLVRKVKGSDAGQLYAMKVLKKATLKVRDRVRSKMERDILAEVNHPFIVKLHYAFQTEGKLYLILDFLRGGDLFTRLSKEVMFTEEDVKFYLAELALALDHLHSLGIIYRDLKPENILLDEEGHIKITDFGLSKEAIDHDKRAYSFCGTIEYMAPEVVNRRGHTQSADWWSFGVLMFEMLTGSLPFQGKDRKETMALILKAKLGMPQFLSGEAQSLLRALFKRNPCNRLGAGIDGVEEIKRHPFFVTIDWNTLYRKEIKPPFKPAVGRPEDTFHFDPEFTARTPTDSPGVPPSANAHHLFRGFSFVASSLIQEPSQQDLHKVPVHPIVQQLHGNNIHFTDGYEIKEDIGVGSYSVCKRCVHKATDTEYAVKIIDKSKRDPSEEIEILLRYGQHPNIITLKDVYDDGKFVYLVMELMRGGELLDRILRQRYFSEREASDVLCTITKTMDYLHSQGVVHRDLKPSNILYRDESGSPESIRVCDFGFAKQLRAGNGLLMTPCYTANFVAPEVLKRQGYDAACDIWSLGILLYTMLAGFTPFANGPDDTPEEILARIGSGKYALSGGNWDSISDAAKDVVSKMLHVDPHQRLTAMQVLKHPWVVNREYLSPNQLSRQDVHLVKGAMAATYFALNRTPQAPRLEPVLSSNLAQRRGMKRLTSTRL
Chain of Serine/threonine-protein kinase 38-like (Homo sapiens) (Q9Y2H1 2-464 limits assumed): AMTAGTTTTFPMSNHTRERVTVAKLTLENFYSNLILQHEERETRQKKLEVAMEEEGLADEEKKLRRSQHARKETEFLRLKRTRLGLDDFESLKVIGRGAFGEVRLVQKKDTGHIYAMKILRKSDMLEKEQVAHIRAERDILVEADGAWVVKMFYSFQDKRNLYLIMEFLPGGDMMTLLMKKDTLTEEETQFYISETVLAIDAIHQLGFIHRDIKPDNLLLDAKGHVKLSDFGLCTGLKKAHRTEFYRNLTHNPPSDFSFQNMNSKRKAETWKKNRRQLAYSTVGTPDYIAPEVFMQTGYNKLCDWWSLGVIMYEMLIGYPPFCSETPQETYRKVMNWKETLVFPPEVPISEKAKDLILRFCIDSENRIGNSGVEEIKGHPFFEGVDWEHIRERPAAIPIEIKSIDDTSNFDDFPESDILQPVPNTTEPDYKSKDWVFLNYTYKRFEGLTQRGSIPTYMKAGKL
Chain of Serine/threonine-protein kinase PAK 3 (Homo sapiens) (O75914 whole entry, looked up): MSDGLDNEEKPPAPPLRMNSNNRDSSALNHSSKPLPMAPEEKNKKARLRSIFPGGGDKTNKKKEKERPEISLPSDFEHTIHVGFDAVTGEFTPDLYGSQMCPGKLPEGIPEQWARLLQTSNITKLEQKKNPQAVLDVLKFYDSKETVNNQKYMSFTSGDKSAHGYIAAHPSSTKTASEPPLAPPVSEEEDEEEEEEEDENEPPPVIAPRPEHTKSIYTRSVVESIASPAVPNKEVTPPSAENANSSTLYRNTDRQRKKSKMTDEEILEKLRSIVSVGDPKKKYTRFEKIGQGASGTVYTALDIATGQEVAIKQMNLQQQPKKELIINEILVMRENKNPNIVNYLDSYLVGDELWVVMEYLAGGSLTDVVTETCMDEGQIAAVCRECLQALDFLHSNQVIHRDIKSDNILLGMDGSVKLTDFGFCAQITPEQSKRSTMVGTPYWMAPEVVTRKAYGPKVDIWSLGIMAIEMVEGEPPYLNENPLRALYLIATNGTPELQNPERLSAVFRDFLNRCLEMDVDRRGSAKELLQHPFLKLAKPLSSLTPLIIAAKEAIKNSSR
Chain of Citron Rho-interacting kinase (Homo sapiens) (O14578 whole entry): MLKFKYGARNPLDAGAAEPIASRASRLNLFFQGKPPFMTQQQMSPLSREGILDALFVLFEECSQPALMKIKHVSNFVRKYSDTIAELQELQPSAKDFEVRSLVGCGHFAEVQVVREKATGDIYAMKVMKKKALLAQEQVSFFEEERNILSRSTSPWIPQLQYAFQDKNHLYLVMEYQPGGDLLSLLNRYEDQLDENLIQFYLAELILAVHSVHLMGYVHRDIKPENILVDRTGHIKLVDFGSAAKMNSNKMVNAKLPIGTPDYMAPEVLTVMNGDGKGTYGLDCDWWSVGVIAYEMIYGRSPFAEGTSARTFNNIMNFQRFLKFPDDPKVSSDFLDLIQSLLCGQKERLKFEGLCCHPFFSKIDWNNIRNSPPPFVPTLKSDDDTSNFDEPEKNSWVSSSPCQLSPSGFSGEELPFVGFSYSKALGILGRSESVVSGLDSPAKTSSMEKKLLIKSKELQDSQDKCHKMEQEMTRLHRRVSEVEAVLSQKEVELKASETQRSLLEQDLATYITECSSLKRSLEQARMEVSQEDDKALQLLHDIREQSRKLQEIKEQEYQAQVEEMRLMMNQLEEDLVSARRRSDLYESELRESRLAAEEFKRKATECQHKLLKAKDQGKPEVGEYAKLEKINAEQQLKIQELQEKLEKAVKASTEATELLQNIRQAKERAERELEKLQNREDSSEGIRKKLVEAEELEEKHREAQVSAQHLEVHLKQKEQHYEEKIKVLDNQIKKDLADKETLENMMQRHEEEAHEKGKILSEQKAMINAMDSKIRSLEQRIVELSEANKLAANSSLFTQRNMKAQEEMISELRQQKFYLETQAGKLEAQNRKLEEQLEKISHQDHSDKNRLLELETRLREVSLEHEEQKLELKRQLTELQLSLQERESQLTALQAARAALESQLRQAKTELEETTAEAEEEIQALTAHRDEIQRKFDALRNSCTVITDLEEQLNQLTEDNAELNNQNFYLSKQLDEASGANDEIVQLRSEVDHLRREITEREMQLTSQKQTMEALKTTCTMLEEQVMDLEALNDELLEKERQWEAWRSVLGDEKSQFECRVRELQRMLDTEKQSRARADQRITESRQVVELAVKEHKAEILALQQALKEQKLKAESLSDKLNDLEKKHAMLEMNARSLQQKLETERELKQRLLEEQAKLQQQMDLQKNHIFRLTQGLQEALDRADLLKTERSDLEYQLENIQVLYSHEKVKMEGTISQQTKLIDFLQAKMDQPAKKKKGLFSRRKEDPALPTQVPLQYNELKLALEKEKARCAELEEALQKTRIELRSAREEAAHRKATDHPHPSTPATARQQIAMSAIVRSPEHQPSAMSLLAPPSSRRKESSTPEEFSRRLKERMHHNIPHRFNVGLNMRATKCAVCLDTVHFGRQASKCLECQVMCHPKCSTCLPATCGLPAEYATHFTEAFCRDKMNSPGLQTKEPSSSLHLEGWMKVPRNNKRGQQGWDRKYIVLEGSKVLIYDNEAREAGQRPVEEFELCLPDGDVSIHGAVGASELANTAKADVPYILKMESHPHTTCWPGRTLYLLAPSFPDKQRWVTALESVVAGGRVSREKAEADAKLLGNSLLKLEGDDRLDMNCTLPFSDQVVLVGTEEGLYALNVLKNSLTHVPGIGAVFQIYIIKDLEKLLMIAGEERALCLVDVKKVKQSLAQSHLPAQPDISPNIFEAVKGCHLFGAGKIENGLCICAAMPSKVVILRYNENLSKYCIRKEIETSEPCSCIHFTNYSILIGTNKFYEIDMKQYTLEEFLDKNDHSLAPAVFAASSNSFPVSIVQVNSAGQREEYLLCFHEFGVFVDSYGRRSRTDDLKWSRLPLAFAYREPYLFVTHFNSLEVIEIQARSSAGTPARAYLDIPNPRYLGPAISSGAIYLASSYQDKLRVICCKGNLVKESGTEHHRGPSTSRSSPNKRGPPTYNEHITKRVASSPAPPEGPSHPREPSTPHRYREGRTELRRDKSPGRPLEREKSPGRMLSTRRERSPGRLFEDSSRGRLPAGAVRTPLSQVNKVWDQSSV
Chain of Phosphorylase b kinase gamma catalytic chain, skeletal muscle/heart isoform (Homo sapiens) (Q16816 whole entry, looked up, canonical isoform): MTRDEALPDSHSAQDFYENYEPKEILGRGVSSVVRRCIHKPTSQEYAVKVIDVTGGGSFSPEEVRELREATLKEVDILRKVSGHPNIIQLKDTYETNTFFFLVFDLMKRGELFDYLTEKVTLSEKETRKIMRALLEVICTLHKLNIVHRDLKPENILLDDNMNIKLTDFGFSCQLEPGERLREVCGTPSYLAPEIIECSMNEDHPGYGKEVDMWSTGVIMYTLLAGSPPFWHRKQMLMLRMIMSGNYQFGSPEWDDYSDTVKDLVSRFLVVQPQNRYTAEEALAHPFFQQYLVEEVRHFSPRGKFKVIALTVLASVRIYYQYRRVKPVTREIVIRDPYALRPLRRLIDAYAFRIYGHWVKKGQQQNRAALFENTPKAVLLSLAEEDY

inhibition [1]	inhibition [2]	inhibition [3]	inhibition [4]	inhibition [5]	inhibition [6]	inhibition [7]	inhibition [8]	inhibition [9]	inhibition [10]	inhibition [11]	SMILES
10.5%	10.1%	11.2%	41.5%	12.1%	-5.27%	7.36%	28%	18.5%	16.4%	3.38%	COCCNC(=O)c1ccc2c(c1)nc(-c1cnc(-c3ccc(Cl)cc3)[nH]1)n2CCOC
8.44%	30.1%	67.5%	100%	100%	-3.87%	22.4%	26.8%	53.5%	4.28%	17.3%	CS(=O)(=O)c1cccc(Nc2nccc(-c3sc(N4CCOCC4)nc3-c3cccc(NS(=O)(=O)c4c(F)cccc4F)c3)n2)c1
55.9%	1.68%	53.4%	98.8%	19.5%	-1.52%	33.7%	15.8%	20.6%	10.7%	69.2%	CC(C)(C)c1cc(NC(=O)Nc2ccc(Oc3ccncc3)cc2)no1
